Measurements taken from patent US20150344485A1, “BICYCLIC PYRIMIDONE COMPOUNDS AS INHIBITORS OF LP-PLA2” (GLAXOSMITHKLINE INTELLECTUAL PROPERTY DEVELOPMENT LIMITED, priority 2013, published 2015).
Like-named read-outs stand apart in the source and are kept apart here.

How the values were obtained:
Lp-PLA2 in human plasma = biological target: T1, Lp-PLA2 in human plasma (Homo sapiens, UniProt Q13093); assay: Lp-PLA2 human plasma assay (Thio-PAF assay); format: biochemical; conditions: pooled human plasma; read-out: pIC50 values in the thio-PAF assay (converted)
T1 construct: from tissue; host or cells: pooled human plasma
T1 sequence (Q13093 22-441): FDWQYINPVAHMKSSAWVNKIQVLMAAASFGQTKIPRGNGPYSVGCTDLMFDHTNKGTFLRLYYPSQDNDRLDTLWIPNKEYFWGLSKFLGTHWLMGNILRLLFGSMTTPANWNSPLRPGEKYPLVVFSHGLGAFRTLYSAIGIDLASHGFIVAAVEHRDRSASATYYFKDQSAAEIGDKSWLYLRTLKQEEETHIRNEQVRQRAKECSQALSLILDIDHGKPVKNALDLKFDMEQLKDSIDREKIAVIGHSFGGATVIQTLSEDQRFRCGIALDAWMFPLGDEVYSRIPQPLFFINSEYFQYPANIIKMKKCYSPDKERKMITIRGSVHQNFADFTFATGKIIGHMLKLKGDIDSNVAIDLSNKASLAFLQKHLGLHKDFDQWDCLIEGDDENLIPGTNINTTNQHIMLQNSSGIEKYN
Description: The human plasma assay utilizes a thioester analog of PAF (phosphatidylcholine), where hydrolysis yields to the formation of a phospholipid containing a free thiol group. The amount of thiol is quantitated continuously by reacting with CPM (7-diethylamino-3-(4′-maleimidylphenyl)-4-methylcoumarin), a maleimide which increases in fluoresence after Michael addition of thiols. This assay may detect the activity of Lp-PLA2 in human plasma, as determined by specific inhibition by Lp-PLA2 inhibitors.
The thio-PAF assay was run as a quenched 15 μL assay. Compounds source plate was prepared by making 1:3 (by volume) serial dilution of the compounds into pure DMSO on 384-well microplate. 0.01 μL of compounds on compound source plate were transferred to 384 well Greiner 784076 (black) low-volume plates by ECHO liquid dispenser. 8 μL pooled human plasma, which was previously aliquoted and frozen, was added. Plates were centrifuged for 10 sec at 500 rpm. After 30 minutes preincubation, 2 μL of substrate solution comprising 2.5 mM 2-thio-PAF [from ethanol stock], 32 μM CPM [from a DMSO stock] and 3.2 mM NEM (N-ethylmaleimide) [made fresh daily in DMSO] in assay buffer of 50 mM HEPES, pH 7.4, 150 mM NaCl, 1 mM CHAPS was added to 384 well Greiner 784076 (black) low-volume plates by BRAVO liquid handling station. After 2 mins, reaction was quenched with 5 μL of 5% aqueous trifluoroacetic acid (TFA). Plates were covered to protect from light and incubated for 40 min at room temperature. Plates were read at ex: 380/em: 485 using-Envision microplate reader. pIC50 data, curve and QC analysis was conducted by using XLFit module in Excel.

[1] = biological target: T2, recombinant human Lp-PLA2 (Homo sapiens, UniProt Q13093); assay: Recombinant human Lp-PLA2 assay (rhLp-PLA2, PED6 assay); format: biochemical
T2 sequence (Q13093 22-441): T1 sequence (Q13093 22-441)
Description: (1) Recombinant Human Lp-PLA2 Assay (rhLp-PLA2) (Also Referred to as “PED6” Assay)
N-((6-(2,4-dinitrophenyl)amino)-hexanoyl)-2-(4,4-difluoro-5,7-dimethyl-4-bora-3a,4a-diaza-s-indacene-3-pentanoyl)-1-hexadecanoyl-sn-glycero-3-phosphoethanolamine, triethylammonium salt (PED6) is a commercially available fluorescently-labeled phospholipid, which is commercially available from Invitrogene and Molecular Probes. There is a quenching para-nitro phenyl (PNP) group in the sn3 position and a Bodipy fluorescein (FL) group in the sn2 position. Upon cleavage with Lp-PLA2, the Bodipy FL group is liberated and then may result in an increase in fluorescence. Inhibitors of Lp-PLA2 therefore prevent this cleavage and no fluorescent increase is observed.
The PED6 assay was run as an unquenched 10 μL assay. The source plate containing the compounds to be tested was prepared by making 1:3 (by volume) serial dilution of the compounds within DMSO on 384-well microplate. Then, 0.01 μL of the compounds on compound source plate were transferred into 384 well Greiner 784076 (black) plates using ECHO liquid dispenser. 5 μL of recombinant human Lp-PLA2 enzyme (4 nM (or 110 pM) rhLp-PLA2 in assay buffer of 50 mM HEPES, pH 7.4, 150 mM NaCl, 1 mM CHAPS) was added to each well of the plate. Plates were centrifuged for 10 sec at 500 rpm. After 30 minutes preincubation, 5 μL of substrate (4 μM (or 5 μM) PED6 [from 5 mM DMSO stock] in assay buffer of 50 mM HEPES, pH 7.4, 150 mM NaCl, 1 mM CHAPS) was added to 384 well Greiner 784076 (black) plates. Plates were centrifuged for 10 sec at 500 rpm. The plate was covered to protect it from light and incubated for 20 min at room temperature. The plates were read for fluorescence intensity at ex: 480/em: 540 using ViewLux microplate imager for Envision spectrofluroimeters. pIC50 data, curve and QC analysis was conducted by using XL fit module in Excel.

[2] = read-out: pIC50 values in the recombinant human Lp-PLA2 assay (converted)

SMILES	IC50 (Lp-PLA2 in human plasma) [nM]	IC50 [1, 2] [nM]	IC50 ([1]; read-out: rhLp-PLA2 (PED6 assay) (pIC50) (converted)) [nM]
C[C@@H]1CCn2c(cc(OCc3ccc(Oc4cccc(C(F)(F)F)c4)c(F)c3)nc2=O)N1C [E120, (R)-8-((3-fluoro-4-(3-(trifluoromethyl)phenoxy)benzyl)oxy)-1,2-dimethyl-3,4-dihydro-1H-pyrimido[1,6-a]pyrimidin-6(2H)-one]	≤ 100	≤ 1	–
C[C@@H]1CCn2c(cc(OCc3ccc(Oc4ccnc(C(F)(F)F)c4)c(F)c3)nc2=O)N1C [E147, (R)-8-((3-fluoro-4-((2-(trifluoromethyl)pyridin-4-yl)oxy)benzyl)oxy)-1,2-dimethyl-3,4-dihydro-1H-pyrimido[1,6-a]pyrimidin-6(2H)-one]	≤ 10	≤ 1	–
CN1c2cc(OCc3ccc(Oc4ccc(F)cc4)c(C#N)c3)nc(=O)n2CCC1(C)C [E118, 2-(4-fluorophenoxy)-5-(((1,2,2-trimethyl-6-oxo-2,3,4,6-tetrahydro-1H-pyrimido[1,6-a]pyrimidin-8-yl)oxy)methyl)benzonitrile]	≤ 100	≤ 1	–
C[C@@H]1CCn2c(cc(OCc3ccc(Oc4ccc(C(F)(F)F)nc4)c(F)c3)nc2=O)N1C [E145, (R)-8-((3-fluoro-4-((6-(trifluoromethyl)pyridin-3-yl)oxy)benzyl)oxy)-1,2-dimethyl-3,4-dihydro-1H-pyrimido[1,6-a]pyrimidin-6(2H)-one]	≤ 10	≤ 1	–
C[C@H]1CCn2c(cc(OCc3ccc(Oc4ccc(F)c(Cl)c4)c(C#N)c3)nc2=O)N1C [E85, (S)-2-(3-chloro-4-fluorophenoxy)-5-(((1,2-dimethyl-6-oxo-2,3,4,6-tetrahydro-1H-pyrimido[1,6-a]pyrimidin-8-yl)oxy)methyl)benzonitrile]	≤ 10	≤ 1	–
CN1c2cc(OCc3ccc(Oc4cccc(F)c4)c(C#N)c3)nc(=O)n2CCC1(C)C [E117, 2-(3-fluorophenoxy)-5-(((1,2,2-trimethyl-6-oxo-2,3,4,6-tetrahydro-1H-pyrimido[1,6-a]pyrimidin-8-yl)oxy)methyl)benzonitrile]	≤ 100	≤ 1	–
C[C@@H]1CCn2c(cc(OCc3cc(F)c(Oc4ccc(Cl)cc4)c(F)c3)nc2=O)N1C [E124, (R)-8-((4-(4-chlorophenoxy)-3,5-difluorobenzyl)oxy)-1,2-dim ethyl-3,4-dihydro-1H-pyrimido[1,6-a]pyrimidin-6(2H)-one]	≤ 100	≤ 1	–
C[C@@H]1CCn2c(cc(OCc3ccc(Oc4cccc(F)c4)c(C#N)c3)nc2=O)N1C [E102, (R)-5-(((1,2-dimethyl-6-oxo-2,3,4,6-tetrahydro-1H-pyrimido[1,6-a]pyrimidin-8-yl)oxy)methyl)-2-(3-fluorophenoxy)benzonitrile]	≤ 10	≤ 1	–
C[C@@H]1CCn2c(cc(OCc3ccc(Oc4ccc(Cl)c(C(F)(F)F)c4)c(F)c3)nc2=O)N1C [E143]	≤ 10	≤ 1	–
C[C@H]1CCn2c(cc(OCc3ccc(Oc4ccnc(C(F)(F)F)c4)c(F)c3)nc2=O)N1C [E151, (S)-8-((3-fluoro-4-((2-(trifluoromethyl)pyridin-4-yl)oxy)benzyl)oxy)-1,2-dimethyl-3,4-dihydro-1H-pyrimido[1,6-a]pyrimidin-6(2H)-one]	≤ 10	≤ 1	–
C[C@@H]1CCn2c(cc(OCc3cc(F)c(Oc4cncc(C(F)(F)F)c4)c(F)c3)nc2=O)N1C [E148, (R)-8-((3,5-difluoro-4-((5-(trifluoromethyl)pyridin-3-yl)oxy)benzyl)oxy)-1,2-dimethyl-3,4-dihydro-1H-pyrimido[1,6-a]pyrimidin-6(2H)-one]	≤ 10	≤ 1	–
C[C@@H]1CCn2c(cc(OCc3ccc(Oc4ccc(F)cc4)c(C#N)c3)nc2=O)N1C [E125, (R)-5-(((1,2-dimethyl-6-oxo-2,3,4,6-tetrahydro-1H-pyrimido[1,6-a]pyrimidin-8-yl)oxy)methyl)-2-(4-fluorophenoxy)benzonitrile]	≤ 100	≤ 1	–
CC(C)N1c2cc(OCc3cc(F)c(F)c(F)c3)nc(=O)n2CC[C@@H]1C [E140, (S)-1-isopropyl-2-methyl-8-((3,4,5-trifluorobenzyl)oxy)-3,4-dihydro-1H-pyrimido[1,6-a]pyrimidin-6(2H)-one]	≤ 100	≤ 1	–
C[C@H]1CCn2c(cc(OCc3cc(F)c(Oc4cncc(C(F)(F)F)c4)c(F)c3)nc2=O)N1C [E150, (S)-8-((3,5-difluoro-4-((5-(trifluoromethyl)pyridin-3-yl)oxy)benzyl)oxy)-1,2-dimethyl-3,4-dihydro-1H-pyrimido[1,6-a]pyrimidin-6(2H)-one]	≤ 10	≤ 1	–
C[C@@H]1CCn2c(cc(OCc3cc(F)c(Oc4ccc(F)cc4)c(F)c3)nc2=O)N1C [E122, (R)-8-((3,5-difluoro-4-(4-fluorophenoxy)benzyl)oxy)-1,2-dimethyl-3,4-dihydro-1H-pyrimido[1,6-a]pyrimidin-6(2H)-one]	≤ 100	≤ 1	–
C[C@@H]1CCn2c(cc(OCc3ccc(Oc4ccc(C(F)(F)F)nc4)c(C#N)c3)nc2=O)N1C [E115, (R)-5-(((1,2-dimethyl-6-oxo-2,3,4,6-tetrahydro-1H-pyrimido[1,6-a]pyrimidin-8-yl)oxy)methyl)-2-((6-(trifluoromethyl)pyridin-3-yl)oxy)benzonitrile]	≤ 10	≤ 1	–
C[C@@H]1CCn2c(cc(OCc3cc(F)c(Oc4cccc(F)c4)c(F)c3)nc2=O)N1C [E103, (R)-8-((3,5-difluoro-4-(3-fluorophenoxy)benzyl)oxy)-1,2-dimethyl-3,4-dihydro-1H-pyrimido[1,6-a]pyrimidin-6(2H)-one]	≤ 100	≤ 1	–
C[C@H]1CCn2c(cc(OCc3ccc(F)c(F)c3)nc2=O)N1C [E37, (S)-8-((3,4-difluorobenzyl)oxy)-1,2-dimethyl-3,4-dihydro-1H-pyrimido[1,6-a]pyrimidin-6(2H)-one]	≤ 100	≤ 1	–
CN1c2cc(OCc3ccc(Oc4ccc(F)c(F)c4)c(C#N)c3)nc(=O)n2CCC1(C)C [E111, 2-(3,4-difluorophenoxy)-5-(((1,2,2-trimethyl-6-oxo-2,3,4,6-tetrahydro-1H-pyrimido[1,6-a]pyrimidin-8-yl)oxy)methyl)benzonitrile]	≤ 10	≤ 1	–
C[C@H]1CCn2c(cc(OCc3cc(F)c(Oc4ccc(Cl)cc4)c(F)c3)nc2=O)N1C [E95, (S)-8-((4-(4-chlorophenoxy)-3,5-difluorobenzyl)oxy)-1,2-dimethyl-3,4-dihydro-1H-pyrimido[1,6-a]pyrimidin-6(2H)-one]	≤ 100	≤ 1	–
CCN1c2cc(OCc3cc(F)c(F)c(F)c3)nc(=O)n2CC[C@@H]1C [E56, (S)-1-ethyl-2-methyl-8-((3,4,5-trifluorobenzyl)oxy)-3,4-dihydro-1H-pyrimido[1,6-a]pyrimidin-6(2H)-one]	≤ 10	≤ 1	0.398
